pIC50: −log10 of the molar value.
Key:
[1] = biological target: Btk (Homo sapiens, UniProt Q06187); experiment: Analysis of in vitro inhibitory activity of Btk (cell-free TR-FRET kinase assay); format: biochemical; conditions: for pIC50: cell-free TR-FRET, ATP at Km, 1 h, read-out: Efficacy (Btk IC50); for inhibitory effects against Btk (in words): summary of Table 1 efficacy data
Experimental: In a cell-free kinase assay, the method described below or a similar method was used to determine the half inhibitory concentration (IC50) of the compound of the present invention on Btk.
Btk kinase activity was determined using a time-resolved fluorescence resonance energy transfer (TR-FRET) methodology. Measurements were performed in a reaction volume of 50 μL using 96-well assay plates. […] The reaction was quenched by the addition of 1.2 equivalents of EDTA (relative to divalent cation) in […] of 1× Lance buffer (Perkin-Elmer). Streptavidin-APC (Perkin-Elmer) and Eu-labeled p-Tyr100 antibody (Perkin-Elmer) in 1× Lance buffer were added in a volume of 25 μL to give final concentrations of 100 nM and 2.5 nM, respectively. The mixture was allowed to incubate for 1 h. The TR-FRET signal was measured on a multimode plate reader at an excitation wavelength (λEx) of 330 nm and detection wavelengths (λEm) of 615 and 665 nm. The activity was determined by the ratio of fluorescence at 665 nm to that at 615 nm. For each compound, the enzyme activity was measured in the presence of different concentrations of the compound. Negative control reactions were performed in the absence of inhibitor in replicates of six, and two no-enzyme controls were used to determine baseline fluorescence levels. IC50 was obtained by fitting using the program Batch Ki (Kuzmic, et al. (2000), Anal. Biochem. 286:45-50).
The Example compounds 1-50 of the present invention were synthesized according to the above Synthetic Schemes I to VII. In the analysis of in vitro inhibitory activity of Btk, the IC50 values of the Example compounds 1-50 of the present invention were determined. The IC50 values are given according to the interval of the IC50 value, where “+++” means IC50<100 nM; “++” means 100 nM≤IC50<1000 nM; and “+” means 1000 nM≤IC50<10000 nM.

[2] = system: OCI-LY7 cells; experiment: Cell viability assay (CellTiter-Glo, 72 h); format: cell-based; conditions: Homo sapiens, read-out: Results from inhibition of OCI-LY7 cells (IC50)
Experimental: An in vitro cell viability assay was conducted using the compounds of Examples 1-50 following the steps below:
1. After OCI-LY7 cells were recovered, they were cultured at 37° C., 5% CO2, and 95% humidity.
2. For the compounds of Examples 1-50, 8 compound solutions at different concentrations were prepared, respectively. 50 μL of the compound solution at each concentration was added to a 96-well black plate.
3. The cell concentration was adjusted to about 30,000 cells/mL. 100 μL of cell suspension was added to the 96-well plate, and mixed well. The final cell density was about 3,000 cells/well.
4. The 96-well plate was placed at 37° C., 5% CO2, and 95% humidity for 72 h.
5. The cell survival rate was measured by the method of CellTiter-Glo® Luminescent Cell Viability Assay (Promega, Cat #G7572). The fluorescence data were read on a microplate reader (EnVision™, a multi-function microplate detector, PerkinElmer).
6. The obtained fluorescence data were analyzed using GraphPad Prism software. The cell survival rate was calculated for each example compound at each concentration, and the IC50 interval of each example compound was obtained.

Btk, sequence (Q06187 whole entry): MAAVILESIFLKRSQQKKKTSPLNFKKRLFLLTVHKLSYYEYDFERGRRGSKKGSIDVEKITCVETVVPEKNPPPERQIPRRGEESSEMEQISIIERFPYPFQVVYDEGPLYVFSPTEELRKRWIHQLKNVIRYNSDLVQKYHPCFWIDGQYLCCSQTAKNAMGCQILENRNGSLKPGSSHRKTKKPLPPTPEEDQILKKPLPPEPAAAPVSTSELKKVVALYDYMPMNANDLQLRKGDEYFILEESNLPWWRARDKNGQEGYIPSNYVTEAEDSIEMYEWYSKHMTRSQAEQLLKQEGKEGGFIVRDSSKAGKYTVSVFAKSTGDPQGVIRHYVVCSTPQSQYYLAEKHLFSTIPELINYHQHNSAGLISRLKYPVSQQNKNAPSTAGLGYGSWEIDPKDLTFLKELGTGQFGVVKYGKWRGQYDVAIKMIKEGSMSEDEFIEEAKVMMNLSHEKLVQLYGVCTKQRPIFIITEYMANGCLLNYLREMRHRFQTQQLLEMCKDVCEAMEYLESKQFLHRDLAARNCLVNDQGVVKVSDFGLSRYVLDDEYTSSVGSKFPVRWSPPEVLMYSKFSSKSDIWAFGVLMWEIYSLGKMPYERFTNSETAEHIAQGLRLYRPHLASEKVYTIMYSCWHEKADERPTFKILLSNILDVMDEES

pIC50 [1]	pIC50 [2]	Structure (SMILES)	inhibitory effects against Btk (in words) [1]
> 7.00	> 6.30	Cc1cc[nH]c(=O)c1-c1ccc2nc(Nc3cccc(N)c3)ncc2c1 [Example 1]	–
> 7.00	> 6.30	C=CC(=O)Nc1cccc(Nc2ncc3cc(-c4c(C)cc[nH]c4=O)ccc3n2)c1 [Example 2]	particularly excellent inhibitory effects
> 7.00	> 6.30	CCC(=O)Nc1cccc(Nc2ncc3cc(-c4c(C)cc[nH]c4=O)ccc3n2)c1 [Example 3]	–
> 7.00	> 6.30	C/C=C/C(=O)Nc1cccc(Nc2ncc3cc(-c4c(C)cc[nH]c4=O)ccc3n2)c1 [Example 4]	–
> 7.00	> 6.30	Cc1cc[nH]c(=O)c1-c1ccc2nc(Nc3cccc(NC(=O)/C=C/CN(C)C)c3)ncc2c1 [Example 5]	particularly excellent inhibitory effects
> 7.00	> 6.30	C=CC(=O)Nc1cc(Nc2ncc3cc(-c4c(C)cc[nH]c4=O)ccc3n2)ccc1OCCOC [Example 6]	–
> 7.00	> 6.30	Cc1cc[nH]c(=O)c1-c1ccc2nc(Nc3cccc(NC(=O)/C=C/CN4CCCCC4)c3)ncc2c1 [Example 7]	–
> 7.00	> 6.30	Cc1cc[nH]c(=O)c1-c1ccc2nc(Nc3cccc(NC(=O)/C=C/CN4CCOCC4)c3)ncc2c1 [Example 8]	–
> 7.00	5.60 to 6.30	Cc1cc[nH]c(=O)c1-c1ccc2nc(Nc3cccc(NC(=O)CN)c3)ncc2c1 [Example 9]	–
> 7.00	> 6.30	C=CC(=O)NCC(=O)Nc1cccc(Nc2ncc3cc(-c4c(C)cc[nH]c4=O)ccc3n2)c1 [Example 10]	–
> 7.00	> 6.30	Cc1cc[nH]c(=O)c1-c1ccc2nc(Nc3cccc(NC(=O)CCN(C)C)c3)ncc2c1 [Example 11]	–
5.00 to 6.00	> 6.30	Cc1ccn(-c2cccc(C(F)(F)F)c2)c(=O)c1-c1ccc2nc(Nc3cccc(N)c3)ncc2c1 [Example 12]	–
6.00 to 7.00	> 6.30	C=CC(=O)Nc1cccc(Nc2ncc3cc(-c4c(C)ccn(-c5cccc(C(F)(F)F)c5)c4=O)ccc3n2)c1 [Example 13]	–
6.00 to 7.00	> 6.30	Cc1ccn(-c2ccc(N3CCOCC3)cc2)c(=O)c1-c1ccc2nc(Nc3cccc(N)c3)ncc2c1 [Example 14]	–
6.00 to 7.00	> 6.30	C=CC(=O)Nc1cccc(Nc2ncc3cc(-c4c(C)ccn(-c5ccc(N6CCOCC6)cc5)c4=O)ccc3n2)c1 [Example 15]	–
5.00 to 6.00	5.60 to 6.30	Cc1ccn(C)c(=O)c1-c1ccc2nc(Nc3cccc(N)c3)ncc2c1 [Example 16]	–
6.00 to 7.00	5.60 to 6.30	C=CC(=O)Nc1cccc(Nc2ncc3cc(-c4c(C)ccn(C)c4=O)ccc3n2)c1 [Example 17]	–
> 7.00	> 6.30	Cc1cc[nH]c(=O)c1-c1ccc2nc(Nc3cccc(NC(=O)[C@@H](N)C(C)C)c3)ncc2c1 [Example 18]	–
> 7.00	> 6.30	C=CC(=O)N[C@H](C(=O)Nc1cccc(Nc2ncc3cc(-c4c(C)cc[nH]c4=O)ccc3n2)c1)C(C)C [Example 19]	particularly excellent inhibitory effects
6.00 to 7.00	5.60 to 6.30	Cc1cc[nH]c(=O)c1-c1ccc2nc(Nc3cccc(NC(=O)[C@@H]4CCCN4)c3)ncc2c1 [Example 20]	–
> 7.00	> 6.30	C=CC(=O)N1CCC[C@H]1C(=O)Nc1cccc(Nc2ncc3cc(-c4c(C)cc[nH]c4=O)ccc3n2)c1 [Example 21]	–
> 7.00	> 6.30	CNc1cccc(Nc2ncc3cc(-c4c(C)cc[nH]c4=O)ccc3n2)c1 [Example 22]	–
> 7.00	> 6.30	Cc1cc[nH]c(=O)c1-c1ccc2nc(Nc3cccc(N(C)C(=O)/C=C/CN(C)C)c3)ncc2c1 [Example 24]	particularly excellent inhibitory effects
> 7.00	> 6.30	CCNc1cccc(Nc2ncc3cc(-c4c(C)cc[nH]c4=O)ccc3n2)c1 [Example 25]	–

From patent publication US20220017484A1, “INHIBITOR OF BRUTON TYROSINE KINASE” (BEIJING RECIPROCAPHARMACEUTICALS CO., LTD., priority 2018, published 2022)
